According to ChEMBL document CHEMBL1201862, “PubChem BioAssay data set” (2004):
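All cell lines were grown in 96-well plates and treated with compound for 48 hours. GI50 marks 50% less growth.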 Calls of active or inactive are those of the source. Rule as the data show it: active = GI50 up to about 1.1 µM and inactive = higher.

Legend:
Test in all cases: NCI tumour cell line growth inhibition, 48 h
786-0 = test system: 786-0
A498 = test system: A498
A549 = test system: A549
ACHN = test system: ACHN
CCRF-CEM = test system: CCRF-CEM
COLO 205 = test system: COLO 205
DU-145 = test system: DU-145
EKVX = test system: EKVX
HCC 2998 = test system: HCC 2998
HCT-116 = test system: HCT-116
HCT-15 = test system: HCT-15
HL-60 = test system: HL-60
HOP-62 = test system: HOP-62
HOP-92 = test system: HOP-92
HT-29 = test system: HT-29
Hs-578T = test system: Hs-578T
IGROV-1 = test system: IGROV-1
K562 = test system: K562
KM12 = test system: KM12
LOX IMVI = test system: LOX IMVI
M14 = test system: M14
MCF7 = test system: MCF7
MDA-MB-231 = test system: MDA-MB-231
MDA-MB-435 = test system: MDA-MB-435
MDA-N = test system: MDA-N
MOLT-4 = test system: MOLT-4
NCI-H226 = test system: NCI-H226
NCI-H23 = test system: NCI-H23
NCI-H460 = test system: NCI-H460
NCI-H522 = test system: NCI-H522
NCI/ADR-RES = test system: NCI/ADR-RES
OVCAR-3 = test system: OVCAR-3
OVCAR-4 = test system: OVCAR-4
OVCAR-5 = test system: OVCAR-5
OVCAR-8 = test system: OVCAR-8
PC-3 = test system: PC-3
RPMI-8226 = test system: RPMI-8226
RXF 393 = test system: RXF 393
SF-268 = test system: SF-268
SF-295 = test system: SF-295
SF-539 = test system: SF-539
SK-MEL-28 = test system: SK-MEL-28
SK-MEL-5 = test system: SK-MEL-5
SK-OV-3 = test system: SK-OV-3
SN12C = test system: SN12C
SNB-19 = test system: SNB-19
SNB-75 = test system: SNB-75
SW-620 = test system: SW-620
T47D = test system: T47D
TK-10 = test system: TK-10
U-251 = test system: U-251
UACC-257 = test system: UACC-257
UACC-62 = test system: UACC-62
UO-31 = test system: UO-31
CAKI-1 = test system: CAKI-1
SK-MEL-2 = test system: SK-MEL-2
SR = test system: SR

Cc1cc2c(c(C)c1O)C(C)(C)CN2C(=O)C(C)(C)C
GI50 (786-0): > 100 µM (inactive) | GI50 (A498): 66.7 µM (inactive) | GI50 (A549): > 100 µM (inactive) | GI50 (ACHN): > 100 µM (inactive) | GI50 (CCRF-CEM): 77.6 µM (inactive) | GI50 (COLO 205): 86.7 µM (inactive) | GI50 (DU-145): > 100 µM (inactive) | GI50 (EKVX): > 100 µM (inactive) | GI50 (HCC 2998): > 100 µM (inactive) | GI50 (HCT-116): 84.7 µM (inactive) | GI50 (HCT-15): > 100 µM | GI50 (HL-60): 77.4 µM (inactive) | GI50 (HOP-62): > 100 µM (inactive) | GI50 (HOP-92): 20 µM (inactive) | GI50 (HT-29): 57 µM (inactive) | GI50 (Hs-578T): > 100 µM (inactive) | GI50 (IGROV-1): > 100 µM (inactive) | GI50 (K562): 41.5 µM (inactive) | GI50 (KM12): > 100 µM (inactive) | GI50 (LOX IMVI): > 100 µM (inactive) | GI50 (M14): 80.7 µM (inactive) | GI50 (MCF7): > 100 µM (inactive) | GI50 (MDA-MB-231): 86.9 µM (inactive) | GI50 (MDA-MB-435): 56 µM (inactive) | GI50 (MDA-N): > 100 µM (inactive) | GI50 (MOLT-4): 59.4 µM (inactive) | GI50 (NCI-H226): 26.1 µM (inactive) | GI50 (NCI-H23): 42.5 µM (inactive) | GI50 (NCI-H460): > 100 µM (inactive) | GI50 (NCI-H522): > 100 µM (inactive) | GI50 (NCI/ADR-RES): 16.5 µM (inactive) | GI50 (OVCAR-3): 14.4 µM (inactive) | GI50 (OVCAR-4): 54.1 µM (inactive) | GI50 (OVCAR-5): > 100 µM (inactive) | GI50 (OVCAR-8): > 100 µM (inactive) | GI50 (PC-3): 46.3 µM (inactive) | GI50 (RPMI-8226): > 100 µM (inactive) | GI50 (RXF 393): 22.7 µM (inactive) | GI50 (SF-268): > 100 µM (inactive) | GI50 (SF-295): > 100 µM (inactive) | GI50 (SF-539): > 100 µM (inactive) | GI50 (SK-MEL-28): > 100 µM (inactive) | GI50 (SK-MEL-5): 25.1 µM (inactive) | GI50 (SK-OV-3): > 100 µM (inactive) | GI50 (SN12C): > 100 µM (inactive) | GI50 (SNB-19): > 100 µM (inactive) | GI50 (SNB-75): 28 µM (inactive) | GI50 (SW-620): > 100 µM (inactive) | GI50 (T47D): 56.5 µM (inactive) | GI50 (TK-10): > 100 µM (inactive) | GI50 (U-251): > 100 µM (inactive) | GI50 (UACC-257): > 100 µM (inactive) | GI50 (UACC-62): > 100 µM (inactive) | GI50 (UO-31): 74.5 µM (inactive)

COP(=O)(OC)C(Cc1cn(C(C)=O)c2ccccc12)C(=O)O (stereo not drawn)
GI50 (A498): > 100 µM (inactive) | GI50 (A549): > 100 µM (inactive) | GI50 (ACHN): > 100 µM (inactive) | GI50 (CAKI-1): > 100 µM (inactive) | GI50 (CCRF-CEM): > 100 µM (inactive) | GI50 (COLO 205): > 100 µM (inactive) | GI50 (DU-145): > 100 µM (inactive) | GI50 (HCC 2998): > 100 µM (inactive) | GI50 (HCT-116): > 100 µM (inactive) | GI50 (HCT-15): > 100 µM | GI50 (HL-60): > 100 µM (inactive) | GI50 (HOP-62): > 100 µM (inactive) | GI50 (HOP-92): 65.5 µM (inactive) | GI50 (HT-29): > 100 µM (inactive) | GI50 (Hs-578T): > 100 µM (inactive) | GI50 (IGROV-1): > 100 µM (inactive) | GI50 (K562): > 100 µM (inactive) | GI50 (LOX IMVI): > 100 µM (inactive) | GI50 (M14): > 100 µM (inactive) | GI50 (MCF7): 8.26 µM (inactive) | GI50 (MDA-MB-231): > 100 µM (inactive) | GI50 (MDA-N): > 100 µM (inactive) | GI50 (MOLT-4): > 100 µM (inactive) | GI50 (NCI-H226): > 100 µM (inactive) | GI50 (NCI-H23): > 100 µM (inactive) | GI50 (NCI-H460): > 100 µM (inactive) | GI50 (NCI-H522): > 100 µM (inactive) | GI50 (NCI/ADR-RES): > 100 µM (inactive) | GI50 (OVCAR-3): > 100 µM (inactive) | GI50 (OVCAR-4): > 100 µM (inactive) | GI50 (OVCAR-5): > 100 µM (inactive) | GI50 (OVCAR-8): > 100 µM (inactive) | GI50 (PC-3): > 100 µM (inactive) | GI50 (RPMI-8226): > 100 µM (inactive) | GI50 (SF-295): > 100 µM (inactive) | GI50 (SK-MEL-28): > 100 µM (inactive) | GI50 (SK-MEL-2): > 100 µM (inactive) | GI50 (SK-MEL-5): > 100 µM (inactive) | GI50 (SK-OV-3): > 100 µM (inactive) | GI50 (SN12C): > 100 µM (inactive) | GI50 (SNB-19): > 100 µM (inactive) | GI50 (SNB-75): > 100 µM (inactive) | GI50 (SR): > 100 µM (inactive) | GI50 (SW-620): > 100 µM (inactive) | GI50 (T47D): > 100 µM (inactive) | GI50 (TK-10): > 100 µM (inactive) | GI50 (U-251): > 100 µM (inactive) | GI50 (UACC-257): > 100 µM (inactive) | GI50 (UO-31): > 100 µM (inactive)
